Literature values in patent US20090068287A1, “Novel topical formulations of flucytosine and uses thereof” (priority 2007, published 2009).

Legend:
[1] = human, in vivo
C. glabrata [2] = conditions: boric acid 600 mg/day 2 to 3 weeks; flucytosine cream nightly for 14 days
C. tropicalis [3] = conditions: 70 C. tropicalis isolates
C. tropicalis [4] = conditions: 28 patients on miconazole nitrate, 13 on clotrimazole, nightly for seven nights; 3 secondarily on ketoconazole 200 mg for 14 days
C. albicans = conditions: 104 patients with vulvovaginal candidiasis
C. glabrata [5] = conditions: 68 C. glabrata isolates
Candida albicans = conditions: 342 Candida albicans isolates
C. parapsilosis = conditions: 65 C. parapsilosis isolates

## Nc1nc(=O)[nH]cc1F [flucytosine, 4-amino-5-fluoropyrimidin-2(1H)-one]
[1]
  plasma level that led to bone marrow depression and hepatotoxicity: greater than 100 mg/L

## OB(O)O [boric acid]
C. glabrata [2]
  clinical and mycological success / successful outcome, number of women: 47 of 73
  clinical and mycological success / successful outcome, percent of women: 64%

## CC(=O)N1CCN(c2ccc(OCC3COC(Cn4ccnc4)(c4ccc(Cl)cc4Cl)O3)cc2)CC1 (stereo not drawn) [ketoconazole]
C. tropicalis [3]
  isolates resistant: 2.9%
Clinical yeast isolates
  cross-resistance of fluconazole/itraconazole resistant C. albicans isolates: decreased susceptibilities
C. tropicalis [4]
  patients with recurrences: all three

## OC(Cn1cncn1)(Cn1cncn1)c1ccc(F)cc1F [fluconazole]
C. albicans
  resistant C. albicans isolated, share of the cases: 13.46%
C. tropicalis [3]
  isolates resistant: 27.1%
Clinical yeast isolates; 227 clinical yeast isolates
  yeast strains resistant: Almost thirteen percent
C. glabrata [5]
  isolates resistant: 10.3%
Candida albicans
  isolates showing resistance: 7.6%
C. parapsilosis
  isolates resistant: 4.6%

## Clc1ccc(COC(Cn2ccnc2)c2ccc(Cl)cc2Cl)c(Cl)c1 (stereo not drawn) [miconazole]
Clinical yeast isolates
  cross-resistance of fluconazole/itraconazole resistant C. albicans isolates: decreased susceptibilities

## C[C@@H]1[C@H](O)[C@@H](C)/C=C/C=C/C=C/C=C/C=C/C=C/C=C/[C@H](O[C@@H]2O[C@H](C)[C@@H](O)[C@H](N)[C@@H]2O)C[C@@H]2O[C@](O)(C[C@@H](O)C[C@@H](O)[C@H](O)CC[C@@H](O)C[C@@H](O)CC(=O)O[C@H]1C)C[C@H](O)[C@H]2C(=O)O [amphotericin B]
Clinical yeast isolates
  cross-resistance of fluconazole/itraconazole resistant C. albicans isolates: no cross-resistance

## C[C@@H]1[C@H](O)[C@@H](C)/C=C/C=C/CC/C=C/C=C/C=C/C=C/C(O[C@H]2O[C@H](C)[C@@H](O)[C@H](N)[C@@H]2O)CC2O[C@](O)(CC(O)C(O)CCC(O)CC(O)CC(O)CC(=O)O[C@H]1C)CC(O)C2C(=O)O (stereo partly drawn) [nystatin]
Clinical yeast isolates
  cross-resistance of fluconazole/itraconazole resistant C. albicans isolates: no cross-resistance
